Test results: US20260124244A1, “MEGAKARYOCYTE DERIVATIVES FOR TREATMENT OF DRY EYE DISEASES” (Stellular Bio, Inc., priority 2023, published 2026)

Columns and labels:
[1] = test system: human corneal epithelial (HCE-T) cells; experiment: HCE-T cell proliferation, xCELLigence RTCA cell index; format: cell-based; details: 72-hour time course; EGF 30.4 pg/ml to 31.2 ng/ml; MLC lysates 0.025-0.75% (v/v) (high speed centrifugation) or 0.22 μm filtered
Protocol: Effect of MLC lysate on proliferation of human corneal epithelial (HCE-T) cells was measured. Briefly, HCE-T cells were plated on to E-Plate 96 (Agilent Technologies, Santa Clara, CA) at 2,500 cells per well in minimal KGM-Gold medium (Lonza, Walkersville, MD). Minimal KGM-Gold medium contains all KGM-Gold BulletKit components except for EGF (positive control), MLC lysates, and/or bovine pituitary extract. For negative control vehicle only, phosphate buffer solution (PBS) was used. After 24 hours, cells were treated with indicated concentrations of MLC lysates, EGF (SinoBiological Inc., Beijing, China) or PBS. The E-plate was then returned to the xCELLigence RTCA instrument for data collection for an additional 48 hours. Area under the curve (AUC) of normalized Cell Index was calculated using RTCA Software Pro and then normalized to vehicle. FIG. 10A illustrates results of a 72-hour time course study of effects of EGF on proliferation of HCE-T cells at a concentration ranging from 30.4 pg/ml to 31.2 ng/ml. FIG. 10B is an alternate representation of FIG. 10A showing normalized area under curved of normalized cell index for each concentration. […] FIG. 11A illustrates results of a 72-hour time course study of effects of MLC Lysates processed with high speed centrifugation on the proliferation of HCE-T cells at a dose ranging from 0.025% (v/v) to 0.75% (v/v). […]

[2] = test system: rat medial meniscal tear (MMT) model of osteoarthritis (OA); experiment: Dynamic weight bearing test in rat MMT osteoarthritis model; format: in vivo; details: intraarticular injection on days 7, 14 and 21 after surgery; tested days 7-28
Protocol: (§1) In vivo effect of MLC lysate and PLC in a subject having osteoarthritis was measured. A rat medial meniscal tear (MMT) model of osteoarthritis (OA) was used in an in vivo study for testing efficacy of megakaryocyte derivatives. […] As described in FIG. 13A, Lewis rats were subjected to meniscal tear surgery on day 0. Dynamic weight bearing and electronic Von Frey Filament analyses were conducted at 7, 14, 21 and 28 days following surgery. Subjects were administered with MLC lysates or PLCs by intraarticular injection after DWB and EVFF analysis on days 7, 14 and 21 following surgery. On day 28 following surgery, serum was collected, and animals were sacrificed to allow for joint histology. PRP and recombinant human FGF-18 were used as positive controls. For negative control vehicle only was used. In sum, the study comprised the following groups: No surgery (n=5), MMT Surgery+Vehicle (n=15), MMT Surgery+Platelet-like cells (n=15), MMT Surgery+Platelet-rich plasma (n=15), MMT Surgery+rFGF-18 (n=15), and MMT Surgery+MLC Lysate (n=15).
(§2) FIGS. 13B and 13C illustrate efficacy results of MLC lysate and PLC in the rat medial meniscal tear model of osteoarthritis using dynamic weight bearing test and electronic Von Frey Filament test, respectively.

[3] = test system: rat medial meniscal tear (MMT) model of osteoarthritis (OA); experiment: Electronic Von Frey Filament test in rat MMT osteoarthritis model; format: in vivo; details: intraarticular injection on days 7, 14 and 21 after surgery; compared to vehicle
Protocol: as §1, §2

[4] = test system: rat medial meniscal tear (MMT) model of osteoarthritis (OA); experiment: Joint histology in rat MMT osteoarthritis model; format: in vivo; details: day 28 after surgery
Protocol: as §1
As outlined in FIG. 13A, a histological analysis of test subjects was performed 28 days following the surgery. […] Additionally, synovitis score wad medial tibial osteophyte measurement was performed based on analysis of histological data.

| Substance | proliferation of HCE-T cells (AUC of normalized Cell Index, normalized to vehicle) [1] | pain profile in dynamic weight bearing testing [2] | electronic von Frey filament thresholds [3] | medial tibial osteophyte measurement compared to vehicle [4] | substantial cartilage degeneration width compared to vehicle [4] | synovitis score compared to vehicle [4] |
| --- | --- | --- | --- | --- | --- | --- |
| EGF: EGF (SinoBiological Inc.) used as positive control for HCE-T proliferation (NSDSECPLSHDGYCLHDGVCMYIEALDKYACNCVVGYIGERCQYRDLKWWELR; Epidermal growth factor; UniProt P01133 971-1023, looked up) | promotes corneal epithelial cell proliferation in a dose-dependent manner |  |  |  |  |  |
| recombinant human FGF-18: recombinant human FGF-18 used as positive control in the rat MMT model |  | progressive increasing signal over time | significant decrease in thresholds | resulted in a significant increase | significant reduction compared to vehicle treatment | significant increase in synovitis score |
